Tests used:
[1] = system: HuP-T3 (Pancreatic Carcinoma); assay: Bliss excess, mean over the matrix (fraction); higher = more synergy
Summary of the method: (§1)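 Cell lines in DMEM/F12 or RPMI with 10% FBS were plated in 1536-well plates, held 24 hours at 37°C, 5% CO2, then given two-drug dose matrices for 72 hours (DMSO typically 0.2%). Viability was read by CellTiter-Glo 2.0 luminescence and scaled as inhibition from 0 (vehicle wells) to 1 (blank wells). Combination Emax is the second-highest inhibition in the matrix; Bliss excess is observed combination effect minus expected EA + EB − EA·EB, EA and EB being single-agent effects.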

[2] = system: NCI-N87 (Gastric Carcinoma); assay: as above
Summary of the method: as §1

EW-3 (Ewing's Sarcoma) = assay: as above
Summary of the method: as §1

[3] = system: VMRC-LCD (Lung Adenocarcinoma); assay: as above
Summary of the method: as §1

U-87-MG (Glioblastoma) [4] = assay: as above
Summary of the method: as §1

[5] = system: NCI-H1573 (Lung Adenocarcinoma); assay: as above
Summary of the method: as §1

[6] = system: OCUB-M (Breast Carcinoma); assay: as above
Summary of the method: as §1

[7] = system: KLE (Endometrial Carcinoma); assay: combination Emax (second highest fraction inhibited in the dose matrix, 72 h); higher = more inhibition; extreme values may be limits of the assay
Summary of the method: as §1

[8] = system: KYSE-50 (Esophageal Squamous Cell Carcinoma); assay: as above
Summary of the method: as §1

[9] = system: NCI-H513 (Other Solid Carcinomas); assay: as above
Summary of the method: as §1

GI-1 (Glioblastoma) = assay: as above
Summary of the method: as §1

[10] = system: KINGS-1 (Low Grade Glioma); assay: as above
Summary of the method: as §1

[11] = system: PFSK-1 (Other Solid Carcinomas); assay: as above
Summary of the method: as §1

[12] = system: EMC-BAC-2 (Non-Small Cell Lung Carcinoma); assay: as above
Summary of the method: as §1

[13] = system: EBC-1 (Squamous Cell Lung Carcinoma); assay: as above
Summary of the method: as §1

IMR-5 (Neuroblastoma) = assay: as above
Summary of the method: as §1

U-87-MG (Glioblastoma) [14] = assay: as above
Summary of the method: as §1

[15] = system: KYSE-150 (Esophageal Squamous Cell Carcinoma); assay: as above
Summary of the method: as §1

[16] = system: OCUB-M (Breast Carcinoma); assay: as above
Summary of the method: as §1

EW-13 (Ewing's Sarcoma) = assay: as above
Summary of the method: as §1
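Wherever Bliss excess, mean over the matrix is given: after 72 h of two-drug dosing.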

SMILES	Bliss excess [1]	Bliss excess [2]	Bliss excess (EW-3 (Ewing's Sarcoma))	Bliss excess [3]	Bliss excess (U-87-MG (Glioblastoma) [4])	Bliss excess [5]	Bliss excess [6]	combination Emax [7]	combination Emax [8]	combination Emax [9]	combination Emax (GI-1 (Glioblastoma))	combination Emax [10]	combination Emax [11]	combination Emax [12]	combination Emax [13]	combination Emax (IMR-5 (Neuroblastoma))	combination Emax (U-87-MG (Glioblastoma) [14])	combination Emax [15]	combination Emax [16]	combination Emax (EW-13 (Ewing's Sarcoma))
CN(C)CCCOc1ccc(-c2ccc3ncc4c(c3c2)n(C2CCOCC2)c(=O)n4C)cn1 [AZD0156] + O=C(c1cc(Cc2n[nH]c(=O)c3ccccc23)ccc1F)N1CCN(C(=O)C2CC2)CC1 [Olaparib] (first compound max 3 µM, partner max 3 µM)	-0.0247	-0.0568	0.13	-0.0489	0.0207	0.0002	-0.0091	0.334	0.195	0.194	0.336	0.176	0.424	0.486	0.267	0.544	0.297	0.295	0.273	
C=CCn1c(=O)c2cnc(Nc3ccc(N4CCN(C)CC4)cc3)nc2n1-c1cccc(C(C)(C)O)n1 [AZD1775] + C1CN(CCC1(C(=O)N[C@@H](CCO)C2=CC=C(C=C2)Cl)N)C3=NC=NC4=C3C=CN4 [Capivasertib] (first compound max 3 µM, partner max 3 µM)	-0.0608	-0.0067	-0.0571	-0.0226	0.0503	-0.0318	-0.0436	0.619	0.771	0.494	0.907	0.473	0.893	0.592	0.7	1	0.467	0.727	0.955	
COc1nnc2ccc(N3CCC(c4ccc(OCCN5CCN(C)C(=O)[C@H]5C)cc4)CC3)nn12 [AZD5153] + CN(CC[C@H](CSC1=CC=CC=C1)NC2=C(C=C(C=C2)S(=O)(=O)NC(=O)C3=CC=C(C=C3)N4CCC(CC4)[C@H](C5=CC=CC=C5C6=CC=C(C=C6)Cl)O)S(=O)(=O)C(F)(F)F)CCO [AZD4320] (first compound max 1 µM, 7x7, partner max 1 µM)	0.0559				0.099	0.0178		0.792	0.732	0.409			0.558	0.661	1	0.984	0.625	0.607		0.818
Cc1c2c(nn1C)CSCc1cc(n(C)n1)CSc1cc(c3ccccc3c1)OCCCc1c(C(=O)O)n(C)c3c-2c(Cl)ccc13 [AZD5991] + C1CN(CCC1(C(=O)N[C@@H](CCO)C2=CC=C(C=C2)Cl)N)C3=NC=NC4=C3C=CN4 [Capivasertib] (first compound max 1 µM, 7x7, partner max 3 µM)	-0.0186	-0.0516	0.0032	-0.0416	0.0264	0.0057	0.0321	0.267	0.226		0.949	0.242	1	0.718	0.287	1	0.372	0.397	1	0.432
CS(=O)(=O)CCNCc1ccc(-c2ccc3ncnc(Nc4ccc(OCc5cccc(F)c5)c(Cl)c4)c3c2)o1 [Lapatinib] + NC1(c2ccc(-c3nc4ccn5c(=O)[nH]nc5c4cc3-c3ccccc3)cc2)CCC1 [MK-2206] (first compound max 10 µM, 7x7, partner max 10 µM)		0.0091	0.0455	-0.0273		-0.0055	0.142			0.386	0.899	0.83	0.942					0.954	1	
CC(=O)c1c(C)c2cnc(Nc3ccc(N4CCNCC4)cn3)nc2n(C2CCCC2)c1=O [Palbociclib] + CN(CC[C@H](CSC1=CC=CC=C1)NC2=C(C=C(C=C2)S(=O)(=O)NC(=O)C3=CC=C(C=C3)N4CCC(CC4)[C@H](C5=CC=CC=C5C6=CC=C(C=C6)Cl)O)S(=O)(=O)C(F)(F)F)CCO [AZD4320] (first compound max 10 µM, 7x7, partner max 1 µM)	-0.074				-0.0528	-0.109		0.355	0.37	0.205			0.51	0.366	0.875	0.949	0.312	0.607		0.649
COc1cccc(OCCCN)c1-c1cc(Nc2cnc(C#N)cn2)n[nH]1 [Prexasertib] + CN(C)CCCOc1ccc(-c2ccc3ncc4c(c3c2)n(C2CCOCC2)c(=O)n4C)cn1 [AZD0156] (first compound max 1 µM, 7x7, partner max 1 µM)	0.0713	-0.0381	-0.0437	-0.0075		-0.0309	-0.022	0.471	0.844	0.343	0.966	0.528		0.591	0.545	0.963		0.365	0.574	0.452

— the supplement of paper PMC11061612
